Counter-ions that a name gives are not always drawn. Starred links: 1 amine or outer side, 2 acyl side, 3 side chain; linkers in the order of their positions; H or OH if unused. Positions of bridges follow the written chain, without caps; N, C: chain ends. Non-standard residues stand in square brackets, D forms with d. Residues, ends and D or L forms follow the SMILES beside them. Chains are numbered I, II in the order given. Actinocin(9to1) = Cc1c2oc3c(C)ccc(C(=O)[*:1])c3nc-2c(C(=O)[*:2])c(N)c1=O; NMeV = CN[C@H](C(=O)O)C(C)C; Sar = CNCC(=O)O
Tested on: HT29 RAMS11 overexpressing cells
Experiment: High-throughput viability assay (resazurin), 119 FDA-approved anticancer drugs, RAMS11 overexpressing cells (Clone1, Clone2)
Conditions: 72 h, vs empty vector control
[1] = OE1 (RAMS11 overexpression clone 1), 0.1 uM drug
[2] = OE1 (RAMS11 overexpression clone 1), 1 uM drug
[3] = OE1 (RAMS11 overexpression clone 1), 10 uM drug
[4] = OE2 (RAMS11 overexpression clone 2), 0.1 uM drug
[5] = OE2 (RAMS11 overexpression clone 2), 1 uM drug
[6] = OE2 (RAMS11 overexpression clone 2), 10 uM drug

## Cc1c2oc3c(C)ccc(C(=O)N[C@@H]4C(=O)N[C@H](C(C)C)C(=O)N5CCC[C@H]5C(=O)N(C)CC(=O)N(C)[C@@H](C(C)C)C(=O)O[C@@H]4C)c3nc-2c(C(=O)N[C@@H]2C(=O)N[C@H](C(C)C)C(=O)N3CCC[C@H]3C(=O)N(C)CC(=O)N(C)[C@@H](C(C)C)C(=O)O[C@@H]2C)c(N)c1=O [Dactinomycin] (I: T[dV]P[Sar][NMeV] / II: T[dV]P[Sar][NMeV]; ester I:1-I:C, II:1-II:C; linker I:N-II:N via Actinocin(9to1))
[1]
  Viability Fold Change: 1.513
[2]
  Viability Fold Change: 1.552
[3]
  Viability Fold Change: 2.719
[4]
  Viability Fold Change: 1.417
[5]
  Viability Fold Change: 1.475
[6]
  Viability Fold Change: 2.498

## Cc1nc(Nc2ncc(C(=O)Nc3c(C)cccc3Cl)s2)cc(N2CCN(CCO)CC2)n1 [Dasatinib]
[1]
  Viability Fold Change: 0.7242
[2]
  Viability Fold Change: 1.289
[3]
  Viability Fold Change: 1.518
[4]
  Viability Fold Change: 0.7852
[5]
  Viability Fold Change: 1.567
[6]
  Viability Fold Change: 1.607

## Nc1ncn([C@H]2C[C@H](O)[C@@H](CO)O2)c(=O)n1 [Decitabine]
[1]
  Viability Fold Change: 0.9064
[2]
  Viability Fold Change: 0.9366
[3]
  Viability Fold Change: 0.8624
[4]
  Viability Fold Change: 1.026
[5]
  Viability Fold Change: 1.091
[6]
  Viability Fold Change: 1.168

## C[C@@H](CN1CC(=O)NC(=O)C1)N1CC(=O)NC(=O)C1 [Dexrazoxane]
[1]
  Viability Fold Change: 0.9553
[2]
  Viability Fold Change: 0.9814
[3]
  Viability Fold Change: 0.8688
[4]
  Viability Fold Change: 0.9411
[5]
  Viability Fold Change: 1.049
[6]
  Viability Fold Change: 1.119

## CC(=O)O[C@@]12CO[C@@H]1C[C@H](O)[C@@]1(C)C(=O)[C@H](O)C3=C(C)[C@@H](OC(=O)[C@H](O)[C@@H](NC(=O)OC(C)(C)C)c4ccccc4)C[C@@](O)([C@@H](OC(=O)c4ccccc4)[C@H]21)C3(C)C [Docetaxel]
[1]
  Viability Fold Change: 2.831
[2]
  Viability Fold Change: 2.996
[3]
  Viability Fold Change: 2.894
[4]
  Viability Fold Change: 2.726
[5]
  Viability Fold Change: 2.845
[6]
  Viability Fold Change: 2.869

## CNC(=O)c1ccc(N2C(=S)N(c3ccc(C#N)c(C(F)(F)F)c3)C(=O)C2(C)C)cc1F [Enzalutamide]
[1]
  Viability Fold Change: 1.043
[2]
  Viability Fold Change: 1.081
[3]
  Viability Fold Change: 1.088
[4]
  Viability Fold Change: 1.022
[5]
  Viability Fold Change: 1.152
[6]
  Viability Fold Change: 1.1

## COc1cccc2c1C(=O)c1c(O)c3c(c(O)c1C2=O)C[C@@](O)(C(=O)CO)C[C@@H]3O[C@H]1C[C@H](N)[C@@H](O)[C@H](C)O1 [Epirubicin hydrochloride]
[1]
  Viability Fold Change: 1.025
[2]
  Viability Fold Change: 1.822
[3]
  Viability Fold Change: 2.19
[4]
  Viability Fold Change: 1.023
[5]
  Viability Fold Change: 1.861
[6]
  Viability Fold Change: 1.999

## C#Cc1cccc(Nc2ncnc3cc(OCCOC)c(OCCOC)cc23)c1 [Erlotinib HCl]
[1]
  Viability Fold Change: 0.9958
[2]
  Viability Fold Change: 1.169
[3]
  Viability Fold Change: 1.179
[4]
  Viability Fold Change: 0.9899
[5]
  Viability Fold Change: 1.172
[6]
  Viability Fold Change: 1.215

## C[C@]12CC[C@@H]3c4ccc(OC(=O)N(CCCl)CCCl)cc4CC[C@H]3[C@@H]1CC[C@@H]2O [Estramustine]
[1]
  Viability Fold Change: 0.97
[2]
  Viability Fold Change: 1.105
[3]
  Viability Fold Change: 1.034
[4]
  Viability Fold Change: 0.951
[5]
  Viability Fold Change: 1.223
[6]
  Viability Fold Change: 1.025

## COc1cc([C@@H]2c3cc4c(cc3C(O[C@@H]3O[C@@H]5CO[C@@H](C)O[C@H]5[C@H](O)[C@H]3O)C3COC(=O)[C@@H]32)OCO4)cc(OC)c1O (stereo partly drawn) [Etopside]
[1]
  Viability Fold Change: 1.144
[2]
  Viability Fold Change: 1.073
[3]
  Viability Fold Change: 1.161
[4]
  Viability Fold Change: 1.13
[5]
  Viability Fold Change: 0.9992
[6]
  Viability Fold Change: 1.196

## CO[C@H]1C[C@@H]2CC[C@@H](C)[C@@](O)(O2)C(=O)C(=O)N2CCCC[C@H]2C(=O)O[C@H]([C@H](C)C[C@@H]2CC[C@@H](OCCO)[C@H](OC)C2)CC(=O)[C@H](C)/C=C(\C)[C@@H](O)[C@@H](OC)C(=O)[C@H](C)C[C@H](C)/C=C/C=C/C=C/1C [Everolimus]
[1]
  Viability Fold Change: 0.6419
[2]
  Viability Fold Change: 0.7474
[3]
  Viability Fold Change: 0.6863
[4]
  Viability Fold Change: 0.6484
[5]
  Viability Fold Change: 0.7943
[6]
  Viability Fold Change: 0.721

## C=C1C[C@@H]2[C@H](CC[C@]3(C)C(=O)CC[C@@H]23)[C@@]2(C)C=CC(=O)C=C12 [Exemestane]
[1]
  Viability Fold Change: 0.8651
[2]
  Viability Fold Change: 0.981
[3]
  Viability Fold Change: 0.9176
[4]
  Viability Fold Change: 1.047
[5]
  Viability Fold Change: 1.008
[6]
  Viability Fold Change: 1.06

## Nc1nc(F)nc2c1ncn2[C@@H]1O[C@H](CO)[C@@H](O)[C@@H]1O [Fludarabine]
[1]
  Viability Fold Change: 0.869
[2]
  Viability Fold Change: 0.9921
[3]
  Viability Fold Change: 1.056
[4]
  Viability Fold Change: 0.973
[5]
  Viability Fold Change: 1.069
[6]
  Viability Fold Change: 1.073

## C[C@]12CC[C@@H]3c4ccc(O)cc4C[C@@H](CCCCCCCCC[S+]([O-])CCCC(F)(F)C(F)(F)F)[C@H]3[C@@H]1CC[C@@H]2O (stereo partly drawn) [Fulvestrant]
[1]
  Viability Fold Change: 1.048
[2]
  Viability Fold Change: 1.037
[3]
  Viability Fold Change: 1.135
[4]
  Viability Fold Change: 1.088
[5]
  Viability Fold Change: 1.089
[6]
  Viability Fold Change: 1.036

## COc1cc2ncnc(Nc3ccc(F)c(Cl)c3)c2cc1OCCCN1CCOCC1 [Gefitinib]
[1]
  Viability Fold Change: 0.9453
[2]
  Viability Fold Change: 1.164
[3]
  Viability Fold Change: 1.468
[4]
  Viability Fold Change: 0.9436
[5]
  Viability Fold Change: 1.227
[6]
  Viability Fold Change: 1.392

## NC(=O)NO [Hydroxyurea]
[1]
  Viability Fold Change: 0.9496
[2]
  Viability Fold Change: 0.9632
[3]
  Viability Fold Change: 0.9723
[4]
  Viability Fold Change: 0.9871
[5]
  Viability Fold Change: 1.074
[6]
  Viability Fold Change: 0.9675

## CC(=O)[C@]1(O)Cc2c(O)c3c(c(O)c2[C@@H](O[C@H]2C[C@H](N)[C@H](O)[C@H](C)O2)C1)C(=O)c1ccccc1C3=O [Idarubicin hydrochloride]
[1]
  Viability Fold Change: 1.365
[2]
  Viability Fold Change: 1.73
[3]
  Viability Fold Change: 3.603
[4]
  Viability Fold Change: 1.573
[5]
  Viability Fold Change: 1.623
[6]
  Viability Fold Change: 3.696

## CC[C@H](Nc1ncnc2[nH]cnc12)c1nc2cccc(F)c2c(=O)n1-c1ccccc1 [Idelalisib]
[1]
  Viability Fold Change: 0.9092
[2]
  Viability Fold Change: 0.8875
[3]
  Viability Fold Change: 0.9111
[4]
  Viability Fold Change: 0.9773
[5]
  Viability Fold Change: 0.8852
[6]
  Viability Fold Change: 0.8746

## O=P1(NCCCl)OCCCN1CCCl (stereo not drawn) [Ifosfamide]
[1]
  Viability Fold Change: 0.9167
[2]
  Viability Fold Change: 1.025
[3]
  Viability Fold Change: 0.9724
[4]
  Viability Fold Change: 0.9226
[5]
  Viability Fold Change: 1.055
[6]
  Viability Fold Change: 1.058

## CC(C)Cn1cnc2c(N)nc3ccccc3c21 [Imiquimod]
[1]
  Viability Fold Change: 1.048
[2]
  Viability Fold Change: 1.101
[3]
  Viability Fold Change: 1.03
[4]
  Viability Fold Change: 1.037
[5]
  Viability Fold Change: 1.138
[6]
  Viability Fold Change: 0.9752

## CCc1c2c(nc3ccc(OC(=O)N4CCC(N5CCCCC5)CC4)cc13)-c1cc3c(c(=O)n1C2)COC(=O)[C@]3(O)CC [Irinotecan HCl]
[1]
  Viability Fold Change: 0.9198
[2]
  Viability Fold Change: 0.9608
[3]
  Viability Fold Change: 1.151
[4]
  Viability Fold Change: 0.9682
[5]
  Viability Fold Change: 0.9711
[6]
  Viability Fold Change: 1.068

## C/C(=C\c1csc(C)n1)[C@@H]1C[C@@H]2O[C@]2(C)CCC[C@H](C)[C@H](O)[C@@H](C)C(=O)C(C)(C)[C@@H](O)CC(=O)N1 [Ixabepilone]
[1]
  Viability Fold Change: 1.657
[2]
  Viability Fold Change: 1.943
[3]
  Viability Fold Change: 1.722
[4]
  Viability Fold Change: 1.773
[5]
  Viability Fold Change: 2.017
[6]
  Viability Fold Change: 2.056

## CS(=O)(=O)CCNCc1ccc(-c2ccc3ncnc(Nc4ccc(OCc5cccc(F)c5)c(Cl)c4)c3c2)o1 [Lapatinib]
[1]
  Viability Fold Change: 1.034
[2]
  Viability Fold Change: 1.269
[3]
  Viability Fold Change: 1.357
[4]
  Viability Fold Change: 1.216
[5]
  Viability Fold Change: 1.285
[6]
  Viability Fold Change: 1.391

## Nc1cccc2c1CN(C1CCC(=O)NC1=O)C2=O (stereo not drawn) [Lenalidomide]
[1]
  Viability Fold Change: 0.9659
[2]
  Viability Fold Change: 1.021
[3]
  Viability Fold Change: 0.9664
[4]
  Viability Fold Change: 0.9115
[5]
  Viability Fold Change: 1.009
[6]
  Viability Fold Change: 0.8902

## N#Cc1ccc(C(c2ccc(C#N)cc2)n2cncn2)cc1 [Letrozole]
[1]
  Viability Fold Change: 0.9923
[2]
  Viability Fold Change: 0.9536
[3]
  Viability Fold Change: 0.9791
[4]
  Viability Fold Change: 0.9454
[5]
  Viability Fold Change: 1.057
[6]
  Viability Fold Change: 0.8412

## O=NN(CCCl)C(=O)NC1CCCCC1 [Lomustine]
[1]
  Viability Fold Change: 0.9969
[2]
  Viability Fold Change: 1.03
[3]
  Viability Fold Change: 1.027
[4]
  Viability Fold Change: 0.991
[5]
  Viability Fold Change: 1.111
[6]
  Viability Fold Change: 0.9646

## CC(=O)O[C@]1(C(C)=O)CC[C@H]2[C@@H]3C=C(C)C4=CC(=O)CC[C@]4(C)[C@H]3CC[C@@]21C [Megestrol acetate]
[1]
  Viability Fold Change: 0.8922
[2]
  Viability Fold Change: 1.034
[3]
  Viability Fold Change: 0.9961
[4]
  Viability Fold Change: 0.8949
[5]
  Viability Fold Change: 0.9578
[6]
  Viability Fold Change: 0.9016

— US12024707B2, “Methods and compositions for modulating lncRNAs and methods of treatment based on lncRNA expression” (Washington University, priority 2020, dated 2024)
